{"source": "patent US20230146507A1", "about": "“N-PHENYL-3-MERCAPTOPROPANAMIDE DERIVATIVES AS METALLO-BETA-LACTAMASE INHIBITORS FOR THE TREATMENT OF BACTERIAL INFECTIONS” (Helmholtz-Zentrum Für Infektionsforschung GmbH, priority 2020, published 2023)", "key": {"[1]": {"test_system": "imipenem-resistant P. aeruginosa producing VIM-2", "assay": "Imipenem MIC with compound at single concentration", "format": "cell-based", "settings": "compound at single concentration 1024 μg/mL"}, "MMP-3": {"biological_target": "MMP-3 (Homo sapiens, UniProt P08254)", "sequence (P08254 100-477)": "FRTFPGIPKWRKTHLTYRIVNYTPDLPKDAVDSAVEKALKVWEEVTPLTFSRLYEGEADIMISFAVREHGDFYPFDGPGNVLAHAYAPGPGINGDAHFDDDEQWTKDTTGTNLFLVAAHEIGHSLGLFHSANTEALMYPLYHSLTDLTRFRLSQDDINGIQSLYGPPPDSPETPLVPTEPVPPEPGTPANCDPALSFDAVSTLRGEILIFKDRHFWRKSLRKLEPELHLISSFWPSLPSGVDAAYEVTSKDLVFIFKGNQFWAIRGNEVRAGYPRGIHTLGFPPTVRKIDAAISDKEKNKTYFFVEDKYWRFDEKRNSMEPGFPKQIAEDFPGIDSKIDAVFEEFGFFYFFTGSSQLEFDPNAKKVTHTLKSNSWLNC", "assay": "Selectivity assay on MMP-3", "format": "biochemical", "settings": "read-out: % Inh. @ 100 μM MMP-3", "description": "(§1) Cytotoxicity assays and Selectivity assays. Cytotoxicity assays on HepG2, HEK293 and A549 cells and selectivity assays on various MMPs were performed as described previously (Haupenthal, J.; Baehr, C.; Zeuzem, S.; Piiper, A. RNAse A-like Enzymes in Serum Inhibit the Anti-Neoplastic Activity of SiRNA Targeting Polo-like Kinase 1. Int. J. Cancer 2007, 121 (1), 206-210. https://doi.org/10.1002/ijc.22665)."}, "VIM-1": {"biological_target": "T1, VIM-1 (Pseudomonas aeruginosa, UniProt A0A0F7KYQ8)", "T1 construct": "made in house", "assay": "In vitro inhibition assay (kinetic fluorescence-based activity assay), VIM-1", "format": "biochemical", "settings": "Means and SD of at least two independent experiments", "description": "(§2) Protein expression and purification. The expression of IMP-7, VIM-1, and NDM-1 was performed according to the protocol previously published by Klingler et al. (Klingler, F. M.; Wichelhaus, T. A.; Frank, D.; Cuesta-Bernal, J.; El-Delik, J.; Müller, H. F.; Sjuts, H.; Gottig, S.; Koenigs, A.; Pos, K. M.; et al. Approved Drugs Containing Thiols as Inhibitors of Metallo-β-Lactamases: Strategy to Combat Multidrug-Resistant Bacteria. J. Med. Chem. 2015, 58 (8), 3626-3630. https://doi.org/10.1021/jm501844d) with slight modifications.\n(§3) In vitro inhibition assay. Activity assays for NDM-1, VIM-1, VIM-2 and IMP-7 were carried out, as described by Klingler et al. Final protein concentrations were 0.5 nM (NDM-1), 4.0 nM (VIM-1), and 0.1 nM (IMP-7) in a 50 mM HEPES buffer (pH 7.5, 0.01% Triton X-100) Substrate (Fluorocillin™ (Invitrogen, Darmstadt, Germany) was dissolved in assay buffer to a final concentration of 888 nM. Test compounds were dissolved and pre-diluted in DMSO (final concentration: 1%). In a black polystyrol 96-well plate (Corning) an amount of […] of the respective inhibitor solution at different concentrations was incubated with […] of respective protein containing buffer for 30 minutes at room temperature. […] of substrate solution was added. The readout of the emitted fluorescence was started immediately (45 s for 30 cycles) using a Tecan Infinite F200Pro (Tecan Group Ltd; excitation at 495 nm and emission at 525 nm). Blank controls were performed without enzyme. Positive controls were performed with enzyme but without inhibitor. The inhibitory activity of each test compound was measured in three independent experiments. For calculation of IC50 values, data obtained from measurements with eight different inhibitor concentrations were used. For the evaluation of the sigmoidal dose response equation (variable slope with four parameters) GraphPad Prism 5 (GraphPad Software, La Jolla, Calif., USA) was used."}, "MMP-8": {"biological_target": "MMP-8 (Homo sapiens, UniProt P22894)", "sequence (P22894 101-467)": "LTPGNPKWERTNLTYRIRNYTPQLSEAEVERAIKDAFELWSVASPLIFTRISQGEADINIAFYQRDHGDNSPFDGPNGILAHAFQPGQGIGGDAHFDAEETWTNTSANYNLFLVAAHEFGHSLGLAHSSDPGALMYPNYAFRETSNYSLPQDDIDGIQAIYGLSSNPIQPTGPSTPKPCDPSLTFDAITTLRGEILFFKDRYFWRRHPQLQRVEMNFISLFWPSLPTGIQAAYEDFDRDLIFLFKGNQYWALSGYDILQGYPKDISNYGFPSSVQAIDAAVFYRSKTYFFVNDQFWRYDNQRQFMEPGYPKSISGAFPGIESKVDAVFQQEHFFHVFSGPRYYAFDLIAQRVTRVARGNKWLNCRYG", "assay": "Selectivity assay on MMP-8", "format": "biochemical", "settings": "read-out: % Inh. @ 100 μM MMP-8", "description": "as §1"}, "[2]": {"test_system": "different isolates from E. coli and P. aeruginosa", "assay": "MIC assay, intrinsic antibacterial activity", "format": "cell-based", "settings": "compound alone"}, "MMP-14": {"biological_target": "MMP-14 (Homo sapiens, UniProt P50281)", "assay": "Selectivity assay on MMP-14", "format": "biochemical", "settings": "read-out: % Inh. @ 100 μM MMP-14", "description": "as §1"}, "[3]": {"assay": "Cytotoxicity assay on A549 cells", "format": "cell-based", "settings": "human", "description": "as §1"}, "MMP-7": {"biological_target": "MMP-7 (Homo sapiens, UniProt P09237)", "sequence (P09237 95-267)": "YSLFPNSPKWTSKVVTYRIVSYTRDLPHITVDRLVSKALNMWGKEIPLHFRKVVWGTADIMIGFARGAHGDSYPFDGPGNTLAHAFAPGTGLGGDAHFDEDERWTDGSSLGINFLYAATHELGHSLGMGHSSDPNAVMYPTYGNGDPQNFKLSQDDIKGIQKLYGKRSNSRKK", "assay": "Selectivity assay on MMP-7", "format": "biochemical", "settings": "read-out: % Inh. @ 100 μM MMP-7", "description": "as §1"}, "IMP-7": {"biological_target": "IMP-7 (Pseudomonas aeruginosa, UniProt Q93AU3)", "sequence (Q93AU3 entry or part of it)": "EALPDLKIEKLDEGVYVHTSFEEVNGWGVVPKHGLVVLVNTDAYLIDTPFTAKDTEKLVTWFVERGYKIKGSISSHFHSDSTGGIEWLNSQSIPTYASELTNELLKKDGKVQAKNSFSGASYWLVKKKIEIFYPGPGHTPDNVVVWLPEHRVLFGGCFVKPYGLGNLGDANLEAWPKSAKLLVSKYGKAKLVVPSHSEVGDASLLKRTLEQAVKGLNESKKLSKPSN", "assay": "In vitro inhibition assay (kinetic fluorescence-based activity assay), IMP-7", "format": "biochemical", "settings": "Means and SD of at least two independent experiments", "description": "as §2, §3"}, "[4]": {"assay": "Cytotoxicity assay on HepG2 cells", "format": "cell-based", "settings": "human", "description": "as §1"}, "MMP-2": {"biological_target": "MMP-2 (Homo sapiens, UniProt P08253)", "sequence (P08253 110-660)": "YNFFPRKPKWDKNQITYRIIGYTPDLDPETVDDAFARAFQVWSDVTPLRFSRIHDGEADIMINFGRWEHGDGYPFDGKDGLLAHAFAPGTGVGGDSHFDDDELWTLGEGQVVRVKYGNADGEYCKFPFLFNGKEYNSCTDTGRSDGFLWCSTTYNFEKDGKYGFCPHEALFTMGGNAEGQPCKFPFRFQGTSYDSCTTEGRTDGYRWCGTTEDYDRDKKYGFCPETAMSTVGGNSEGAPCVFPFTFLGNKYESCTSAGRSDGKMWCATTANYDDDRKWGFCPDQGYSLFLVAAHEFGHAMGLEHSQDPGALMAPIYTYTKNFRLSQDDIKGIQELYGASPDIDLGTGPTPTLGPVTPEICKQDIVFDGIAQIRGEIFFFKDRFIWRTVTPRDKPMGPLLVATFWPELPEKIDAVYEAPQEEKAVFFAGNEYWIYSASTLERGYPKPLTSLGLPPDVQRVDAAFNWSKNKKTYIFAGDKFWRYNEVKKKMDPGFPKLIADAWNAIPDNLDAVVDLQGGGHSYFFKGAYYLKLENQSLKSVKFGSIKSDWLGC", "assay": "Selectivity assay on MMP-2", "format": "biochemical", "settings": "read-out: % Inh. @ 100 μM MMP-2", "description": "as §1"}, "NDM-1": {"biological_target": "T2, NDM-1 (Klebsiella pneumoniae, UniProt C7C422)", "T2 construct": "made in house", "T2 sequence (C7C422 29-270, looked up, species assumed)": "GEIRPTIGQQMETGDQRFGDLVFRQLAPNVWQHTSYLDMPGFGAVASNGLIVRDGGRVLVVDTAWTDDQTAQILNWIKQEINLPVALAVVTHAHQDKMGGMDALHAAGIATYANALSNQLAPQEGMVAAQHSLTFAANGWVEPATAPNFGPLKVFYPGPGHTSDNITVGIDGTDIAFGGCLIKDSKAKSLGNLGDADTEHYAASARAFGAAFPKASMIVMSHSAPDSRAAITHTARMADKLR", "assay": "In vitro inhibition assay (kinetic fluorescence-based activity assay), NDM-1", "format": "biochemical", "settings": "Means and SD of at least two independent experiments", "description": "as §2, §3"}, "[5]": {"assay": "Cytotoxicity assay on HEK293 cells", "format": "cell-based", "settings": "human", "description": "as §1"}, "MMP-1": {"biological_target": "MMP-1 (Homo sapiens, UniProt P03956)", "sequence (P03956 100-469)": "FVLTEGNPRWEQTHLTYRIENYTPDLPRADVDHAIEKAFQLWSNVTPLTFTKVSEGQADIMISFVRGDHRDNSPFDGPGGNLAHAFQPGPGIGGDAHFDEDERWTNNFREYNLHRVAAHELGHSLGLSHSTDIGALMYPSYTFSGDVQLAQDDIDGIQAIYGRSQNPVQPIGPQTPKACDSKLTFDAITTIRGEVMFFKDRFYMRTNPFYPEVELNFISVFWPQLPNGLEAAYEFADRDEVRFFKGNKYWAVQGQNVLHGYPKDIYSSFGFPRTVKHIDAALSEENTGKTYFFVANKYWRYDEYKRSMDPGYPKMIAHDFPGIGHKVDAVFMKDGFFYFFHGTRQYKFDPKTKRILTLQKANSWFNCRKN", "assay": "Selectivity assay on MMP-1", "format": "biochemical", "settings": "read-out: % Inh. @ 100 μM MMP-1", "description": "as §1"}, "E. cloacae NDM-1 (T2311)": {"test_system": "E. cloacae NDM-1 (T2311)", "assay": "MIC assay, clinical isolate", "format": "cell-based", "settings": "+HIPS1686 256 mg/L"}, "E. coli NDM-1 (T2359)": {"test_system": "E. coli NDM-1 (T2359)", "assay": "Checkerboard assay with imipenem, E. coli NDM-1 (T2359)", "format": "cell-based", "settings": "Table 4, median of three experiments", "description": "Fractional inhibitory concentration index (FICI). The checkerboard assay was performed to test for synergy in vitro. […] FICIs≤0.5 were defined as synergistic; FICIs from >0.5 to […] were defined as additive; FICIs from 1 to ≤4 were defined as indifferent and FICIs>4 were defined as antagonistic (Doern, C. D. When Does 2 plus 2 Equal 5? A Review of Antimicrobial Synergy Testing. J. Clin. Microbial. 2014, 52 (12), 4124-4128. https://doi.org/10.1128/JCM.01121-14)."}, "E. coli NDM-5 (T2351)": {"test_system": "E. coli NDM-5 (T2351)", "assay": "MIC assay, clinical isolate", "format": "cell-based", "settings": "+HIPS1686 256 mg/L"}, "E. cloacae VIM-1 (T2353)": {"test_system": "E. cloacae VIM-1 (T2353)", "assay": "MIC assay, clinical isolate", "format": "cell-based", "settings": "+HIPS1686 256 mg/L"}, "[6]": {"test_system": "P. aeruginosa IMP-1 (T2325)", "assay": "MIC assay, clinical isolate", "format": "cell-based", "settings": "+HIPS1686 256 mg/L; P. aeruginosa IMP-1 (T2325)"}, "[7]": {"test_system": "S. marcescens NDM-1 (T2352)", "assay": "MIC assay, clinical isolate", "format": "cell-based", "settings": "+HIPS1686 256 mg/L; S. marcescens NDM-1 (T2352)"}, "E. cloacae GIM-1 (T2218)": {"test_system": "E. cloacae GIM-1 (T2218)", "assay": "MIC assay, clinical isolate", "format": "cell-based", "settings": "+HIPS1686 256 mg/L; E. cloacae GIM-1 (T2218)"}, "E. coli producing NDM-1": {"test_system": "E. coli producing NDM-1", "assay": "MIC of imipenem in the presence of HIPS1686", "format": "cell-based"}, "[8]": {"test_system": "K. pneumoniae NDM-1 (T2301)", "assay": "MIC assay, clinical isolate", "format": "cell-based", "settings": "+HIPS1686 256 mg/L"}}}
{"smiles": "O=C(CCS)Nc1ccc(Cl)c(Cl)c1", "note": "[HIPS1447, N-(3,4-Dichlorophenyl)-3-mercaptopropanamide]", "values": [{"measurement": "fold decrease of imipenem MIC value", "setting": "[1]", "result": 64, "unit": "fold"}, {"measurement": "inhibition at 100 µM", "setting": "MMP-3", "result": "< 10", "unit": "%"}, {"measurement": "IC50", "setting": "VIM-1", "result": 0.1, "unit": "µM"}, {"measurement": "inhibition at 100 µM", "setting": "MMP-8", "result": "38.2 ± 24.8", "unit": "%"}, {"measurement": "intrinsic antibacterial activity (MIC)", "setting": "[2]", "result": "no intrinsic antibacterial activity"}, {"measurement": "inhibition at 100 µM", "setting": "MMP-14", "result": "17.9 ± 7.8", "unit": "%"}, {"measurement": "IC50", "setting": "[3]", "result": "> 100", "unit": "µM"}, {"measurement": "inhibition at 100 µM", "setting": "MMP-7", "result": "< 10", "unit": "%"}, {"measurement": "IC50", "setting": "IMP-7", "result": "5 ± 0.6", "unit": "µM"}, {"measurement": "IC50", "setting": "[4]", "result": "> 100", "unit": "µM"}, {"measurement": "inhibition at 100 µM", "setting": "MMP-2", "result": "15.8 ± 13.5", "unit": "%"}, {"measurement": "IC50", "setting": "NDM-1", "result": 1.3, "unit": "µM"}, {"measurement": "IC50", "setting": "[5]", "result": "> 100", "unit": "µM"}, {"measurement": "inhibition at 100 µM", "setting": "MMP-1", "result": "< 10", "unit": "%"}]}
{"smiles": "O=C(CCS)Nc1ccccc1C(=O)O", "note": "[HIPS1686]", "values": [{"measurement": "MIC (mg/L) Imipenem (+HIPS1686 256 mg/L)", "setting": "E. cloacae NDM-1 (T2311)", "result": 1, "unit": "mg/L"}, {"measurement": "IC50", "setting": "VIM-1", "result": "2.2 ± 0.2", "unit": "µM"}, {"measurement": "Imipenem MIC", "setting": "E. coli NDM-1 (T2359); +4 mg/L HIPS1686", "result": 64, "unit": "µg/mL"}, {"measurement": "Imipenem MIC", "setting": "E. coli NDM-1 (T2359); +8 mg/L HIPS1686", "result": 64, "unit": "µg/mL"}, {"measurement": "Imipenem MIC", "setting": "E. coli NDM-1 (T2359); +16 mg/L HIPS1686", "result": 64, "unit": "µg/mL"}, {"measurement": "Imipenem MIC", "setting": "E. coli NDM-1 (T2359); +32 mg/L HIPS1686", "result": 16, "unit": "µg/mL"}, {"measurement": "Imipenem MIC", "setting": "E. coli NDM-1 (T2359); +64 mg/L HIPS1686", "result": 8, "unit": "µg/mL"}, {"measurement": "Imipenem MIC", "setting": "E. coli NDM-1 (T2359); +128 mg/L HIPS1686", "result": 2, "unit": "µg/mL"}, {"measurement": "Imipenem MIC", "setting": "E. coli NDM-1 (T2359); +256 mg/L HIPS1686", "result": 2, "unit": "µg/mL"}, {"measurement": "intrinsic antibacterial activity (MIC)", "setting": "[2]", "result": "no intrinsic antibacterial activity"}, {"measurement": "MIC (mg/L) Imipenem (+HIPS1686 256 mg/L)", "setting": "E. coli NDM-5 (T2351)", "result": 2, "unit": "mg/L"}, {"measurement": "MIC (mg/L) Imipenem (+HIPS1686 256 mg/L)", "setting": "E. cloacae VIM-1 (T2353)", "result": 4, "unit": "mg/L"}, {"measurement": "MIC (mg/L) Imipenem (+HIPS1686 256 mg/L)", "setting": "[6]", "result": 32, "unit": "mg/L"}, {"measurement": "IC50", "setting": "IMP-7", "result": "4.1 ± 0.3", "unit": "µM"}, {"measurement": "MIC (mg/L) Imipenem (+HIPS1686 256 mg/L)", "setting": "[7]", "result": 4, "unit": "mg/L"}, {"measurement": "MIC (mg/L) Imipenem (+HIPS1686 256 mg/L)", "setting": "E. cloacae GIM-1 (T2218)", "result": 0.5, "unit": "mg/L"}, {"measurement": "MIC", "setting": "E. coli producing NDM-1; Escherichia coli", "result": "> 1020", "unit": "µg/mL"}, {"measurement": "MIC of imipenem in the presence of HIPS1686", "setting": "E. coli producing NDM-1; HIPS1686 constant 64 μg/ml", "result": 4, "unit": "µg/mL"}, {"measurement": "MIC of imipenem in the presence of HIPS1686", "setting": "E. coli producing NDM-1; HIPS1686 constant 256 μg/ml", "result": 1, "unit": "µg/mL"}, {"measurement": "MIC of imipenem in the presence of HIPS1686", "setting": "E. coli producing NDM-1; HIPS1686 constant 1024 μg/ml", "result": 1, "unit": "µg/mL"}, {"measurement": "IC50", "setting": "NDM-1", "result": "3.4 ± 0.1", "unit": "µM"}, {"measurement": "MIC (mg/L) Imipenem (+HIPS1686 256 mg/L)", "setting": "[8]", "result": 1, "unit": "mg/L"}]}
